This is an account of results in ChEMBL document CHEMBL5291721, “A preclinical secondary pharmacology resource illuminates target-adverse drug reaction associations of marketed drugs” (Nat Commun, 2023).

Assay [1] has as its target T1, Neuropeptide Y receptor type 1 (Homo sapiens, UniProt P25929).
T1 sequence (P25929 whole entry): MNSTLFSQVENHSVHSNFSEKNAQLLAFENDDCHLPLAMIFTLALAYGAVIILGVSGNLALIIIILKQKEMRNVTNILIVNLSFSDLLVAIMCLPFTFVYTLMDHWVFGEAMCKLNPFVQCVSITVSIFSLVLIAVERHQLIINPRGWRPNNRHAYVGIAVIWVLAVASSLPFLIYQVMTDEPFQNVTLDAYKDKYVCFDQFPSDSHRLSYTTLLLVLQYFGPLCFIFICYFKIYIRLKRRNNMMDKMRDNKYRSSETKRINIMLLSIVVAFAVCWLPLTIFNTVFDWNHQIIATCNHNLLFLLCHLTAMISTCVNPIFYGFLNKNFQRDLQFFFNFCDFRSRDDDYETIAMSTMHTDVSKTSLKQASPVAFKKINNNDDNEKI

For assay [2], the target named is 3',5'-cyclic-AMP phosphodiesterase 4D (Homo sapiens, UniProt Q08499). The assay is classed as functional.
3',5'-cyclic-AMP phosphodiesterase 4D, sequence (Q08499 whole entry): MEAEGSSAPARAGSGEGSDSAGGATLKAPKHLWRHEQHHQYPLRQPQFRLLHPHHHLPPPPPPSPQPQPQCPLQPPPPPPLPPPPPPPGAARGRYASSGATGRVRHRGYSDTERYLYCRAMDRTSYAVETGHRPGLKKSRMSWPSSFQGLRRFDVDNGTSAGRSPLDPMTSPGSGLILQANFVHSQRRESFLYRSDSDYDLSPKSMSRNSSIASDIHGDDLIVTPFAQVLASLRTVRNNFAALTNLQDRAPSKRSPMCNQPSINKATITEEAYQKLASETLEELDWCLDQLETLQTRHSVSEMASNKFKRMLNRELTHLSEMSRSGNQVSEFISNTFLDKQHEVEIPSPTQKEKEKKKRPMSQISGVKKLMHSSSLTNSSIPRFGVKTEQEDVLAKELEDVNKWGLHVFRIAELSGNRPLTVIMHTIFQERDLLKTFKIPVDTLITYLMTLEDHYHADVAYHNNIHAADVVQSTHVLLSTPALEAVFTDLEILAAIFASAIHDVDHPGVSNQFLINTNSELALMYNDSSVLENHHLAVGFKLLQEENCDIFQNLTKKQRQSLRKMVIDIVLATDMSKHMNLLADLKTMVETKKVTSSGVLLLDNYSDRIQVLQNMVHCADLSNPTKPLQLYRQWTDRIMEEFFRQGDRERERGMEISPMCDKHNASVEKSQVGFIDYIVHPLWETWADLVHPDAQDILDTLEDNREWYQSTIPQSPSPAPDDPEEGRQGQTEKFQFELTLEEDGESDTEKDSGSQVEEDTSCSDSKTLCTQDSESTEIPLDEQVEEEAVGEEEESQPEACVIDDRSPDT
Assay [3] has as its target Muscarinic acetylcholine receptor M3 (Homo sapiens, UniProt P20309).
Assay [4] deals with T2, 5-hydroxytryptamine receptor 1A (Homo sapiens, UniProt P08908).
T2 sequence (P08908 whole entry): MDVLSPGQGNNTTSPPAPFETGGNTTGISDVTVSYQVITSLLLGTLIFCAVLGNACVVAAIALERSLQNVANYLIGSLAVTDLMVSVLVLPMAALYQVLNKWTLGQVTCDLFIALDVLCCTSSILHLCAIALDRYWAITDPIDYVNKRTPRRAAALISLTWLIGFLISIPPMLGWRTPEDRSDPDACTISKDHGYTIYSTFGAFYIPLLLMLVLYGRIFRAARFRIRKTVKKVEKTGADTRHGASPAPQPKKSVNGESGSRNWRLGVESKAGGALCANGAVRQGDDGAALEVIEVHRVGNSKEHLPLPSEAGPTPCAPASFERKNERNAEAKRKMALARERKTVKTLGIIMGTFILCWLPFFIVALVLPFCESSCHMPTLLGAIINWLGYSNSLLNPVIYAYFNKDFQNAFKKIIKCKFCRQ
The assay is classed as functional, cell-based.

The target of assay [5] is Glutamate receptor ionotropic, NMDA 1 (Rattus norvegicus, UniProt P35439).
For another assay, the target named is Motilin receptor (Homo sapiens, UniProt O43193).
Motilin receptor, sequence (O43193 whole entry): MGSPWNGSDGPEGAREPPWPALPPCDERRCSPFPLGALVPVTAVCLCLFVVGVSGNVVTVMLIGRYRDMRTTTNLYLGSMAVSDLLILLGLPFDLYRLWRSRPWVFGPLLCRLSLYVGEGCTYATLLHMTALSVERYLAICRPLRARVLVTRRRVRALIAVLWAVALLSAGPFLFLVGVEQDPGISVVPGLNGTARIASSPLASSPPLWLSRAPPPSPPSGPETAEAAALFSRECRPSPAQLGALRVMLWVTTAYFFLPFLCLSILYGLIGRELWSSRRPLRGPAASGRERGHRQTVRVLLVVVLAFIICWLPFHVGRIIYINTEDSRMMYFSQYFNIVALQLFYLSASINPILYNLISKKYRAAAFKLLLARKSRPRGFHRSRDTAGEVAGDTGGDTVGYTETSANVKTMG
Assay [6] has as its target T3, Gastrin/cholecystokinin type B receptor (Homo sapiens, UniProt P32239).
T3 sequence (P32239 whole entry): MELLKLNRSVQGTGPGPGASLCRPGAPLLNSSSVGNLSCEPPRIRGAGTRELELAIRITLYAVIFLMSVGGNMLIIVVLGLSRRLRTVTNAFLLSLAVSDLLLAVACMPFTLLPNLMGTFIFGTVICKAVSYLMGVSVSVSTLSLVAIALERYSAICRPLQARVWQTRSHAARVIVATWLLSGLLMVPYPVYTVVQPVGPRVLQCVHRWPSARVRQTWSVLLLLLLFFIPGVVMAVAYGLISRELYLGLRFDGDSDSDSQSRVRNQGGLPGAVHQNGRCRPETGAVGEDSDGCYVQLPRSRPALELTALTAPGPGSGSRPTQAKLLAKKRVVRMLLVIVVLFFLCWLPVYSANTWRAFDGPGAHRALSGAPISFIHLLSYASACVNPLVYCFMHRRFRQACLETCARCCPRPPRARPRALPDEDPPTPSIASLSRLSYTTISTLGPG

Assay [7] concerns the target T4, Cholecystokinin receptor type A (Homo sapiens, UniProt P32238).
T4 sequence (P32238 whole entry): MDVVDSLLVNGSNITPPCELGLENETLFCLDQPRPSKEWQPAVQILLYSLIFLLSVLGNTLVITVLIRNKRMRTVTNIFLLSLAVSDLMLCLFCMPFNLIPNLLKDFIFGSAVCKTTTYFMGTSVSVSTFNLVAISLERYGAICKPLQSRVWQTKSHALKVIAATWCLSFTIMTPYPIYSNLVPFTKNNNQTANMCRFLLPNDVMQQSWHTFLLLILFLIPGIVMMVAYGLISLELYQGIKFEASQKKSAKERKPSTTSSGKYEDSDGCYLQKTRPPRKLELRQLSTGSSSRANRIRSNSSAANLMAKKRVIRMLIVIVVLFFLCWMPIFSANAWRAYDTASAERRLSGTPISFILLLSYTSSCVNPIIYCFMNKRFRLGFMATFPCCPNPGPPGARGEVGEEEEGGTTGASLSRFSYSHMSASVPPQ

The target in another assay is Melanocortin receptor 3 (Homo sapiens, UniProt P41968).
Melanocortin receptor 3, sequence (P41968 whole entry): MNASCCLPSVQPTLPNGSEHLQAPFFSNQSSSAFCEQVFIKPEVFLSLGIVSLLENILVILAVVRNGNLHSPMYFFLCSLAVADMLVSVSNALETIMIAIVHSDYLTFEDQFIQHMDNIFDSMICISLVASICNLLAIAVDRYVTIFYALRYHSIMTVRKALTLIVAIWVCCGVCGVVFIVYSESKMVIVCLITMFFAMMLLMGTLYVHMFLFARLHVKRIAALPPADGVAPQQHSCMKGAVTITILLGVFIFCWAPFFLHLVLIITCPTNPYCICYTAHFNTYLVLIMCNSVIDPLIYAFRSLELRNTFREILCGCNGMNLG
The target of assay [8] is T5, Alpha-2A adrenergic receptor (Homo sapiens, UniProt P08913).
T5 sequence (P08913 whole entry): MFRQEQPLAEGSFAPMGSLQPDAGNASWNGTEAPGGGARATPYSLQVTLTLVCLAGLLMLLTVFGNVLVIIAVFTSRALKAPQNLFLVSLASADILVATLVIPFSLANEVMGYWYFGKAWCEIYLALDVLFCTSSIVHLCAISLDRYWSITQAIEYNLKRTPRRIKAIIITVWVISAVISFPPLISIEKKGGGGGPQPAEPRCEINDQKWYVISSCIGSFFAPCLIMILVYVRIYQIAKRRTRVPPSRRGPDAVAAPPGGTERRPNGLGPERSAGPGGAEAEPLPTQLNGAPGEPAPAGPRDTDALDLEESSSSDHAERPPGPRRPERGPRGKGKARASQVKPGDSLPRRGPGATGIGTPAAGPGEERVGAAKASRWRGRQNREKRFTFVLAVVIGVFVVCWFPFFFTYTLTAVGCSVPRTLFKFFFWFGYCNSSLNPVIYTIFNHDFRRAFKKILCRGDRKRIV
The assay is classed as functional, cell-based.

The structures appear in SMILES notation.
Further: assay procedure not described here.

Muscarinic acetylcholine receptor M3, sequence (P20309 whole entry): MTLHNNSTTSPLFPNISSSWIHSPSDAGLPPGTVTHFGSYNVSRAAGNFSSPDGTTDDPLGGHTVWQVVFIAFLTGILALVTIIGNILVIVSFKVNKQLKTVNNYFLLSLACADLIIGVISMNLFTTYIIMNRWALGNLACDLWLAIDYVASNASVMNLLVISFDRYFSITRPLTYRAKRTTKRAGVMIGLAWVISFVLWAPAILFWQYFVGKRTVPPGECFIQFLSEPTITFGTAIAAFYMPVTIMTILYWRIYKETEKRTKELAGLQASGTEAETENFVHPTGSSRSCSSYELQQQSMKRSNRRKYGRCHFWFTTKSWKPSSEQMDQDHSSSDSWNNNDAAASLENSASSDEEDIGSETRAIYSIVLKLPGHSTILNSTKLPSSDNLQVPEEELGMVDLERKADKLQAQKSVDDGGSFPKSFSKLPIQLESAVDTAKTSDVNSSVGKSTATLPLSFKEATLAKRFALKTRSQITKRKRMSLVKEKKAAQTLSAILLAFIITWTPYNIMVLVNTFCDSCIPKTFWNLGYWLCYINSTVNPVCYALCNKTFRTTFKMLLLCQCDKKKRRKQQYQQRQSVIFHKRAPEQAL

In the case of `O=C1CN=C(c2ccccc2)c2cc(Cl)ccc2N1` [NORDAZEPAM], the concentration at half-maximal activity (AC50) in assay [1] was above 30 µM; in assay [2], 12 µM; in [3], above 10 µM; in assay [4], above 10 µM; in [5], above 10 µM; on Motilin receptor, above 10 µM. Besides, the AC50 in assay [6] is above 30 µM; in assay [7], above 30 µM; at Melanocortin receptor 3, above 30 µM; in [8] it was above 10 µM.
As to `O=C1Nc2ccc(Cl)cc2C(c2ccccc2)=NC1O` (stereo not given) [OXAZEPAM], the AC50 in assay [1] is above 30 µM; in assay [2] it was above 10 µM; in assay [3], above 10 µM; in assay [4] it was above 10 µM; in [5], above 10 µM; at Motilin receptor, above 10 µM. The concentration at half-maximal activity (AC50) is above 30 µM in [6], above 30 µM in assay [7], above 30 µM on Melanocortin receptor 3 and above 10 µM in assay [8].
Regarding `CC[N+]1(C)CCCC(OC(=O)C(O)(c2ccccc2)c2ccccc2)C1` (stereo not given) [PIPENZOLATE], the AC50 in [1] is above 30 µM; in assay [2], above 30 µM; in assay [3], 0.019 µM; in assay [4], above 30 µM; in assay [5] it was above 30 µM; on Motilin receptor, above 30 µM. For the same molecule, the half-maximal activity concentration (AC50) (in assay [6]; in assay [7]; on Melanocortin receptor 3; in [8]) was above 30 µM in each case.
`CC(=O)c1ccc2c(c1)N(CCCN1CCC(CCO)CC1)c1ccccc1S2` [PIPERACETAZINE]: the concentration at half-maximal activity (AC50) in [1] was above 30 µM; in assay [2] it was above 30 µM; in assay [3], 9.5 µM; in assay [4], 0.043 µM; in [5] it was above 30 µM; on Motilin receptor, above 30 µM. In addition, the concentration at half-maximal activity (AC50) (in [6]; in [7]; at Melanocortin receptor 3; in assay [8]) was above 30 µM in each case.
With `Cc1ccc(=O)n(-c2ccccc2)c1` [PIRFENIDONE], the concentration at half-maximal activity (AC50) (in [1]; in assay [2]; in assay [3]; in assay [4]; in assay [5]; at Motilin receptor) was above 30 µM throughout. Moreover, the AC50 (in assay [6]; in assay [7]; on Melanocortin receptor 3; in assay [8]) was above 30 µM throughout.
Consider `CC(NCCc1ccc(O)cc1)C(O)c1ccc(O)cc1` (stereo not given) [RITODRINE], for which the AC50 is above 30 µM in assay [1]; above 30 µM in [2]; above 30 µM in [3]; above 10 µM in assay [4]; above 30 µM in assay [5]; above 30 µM on Motilin receptor. The AC50 (in [6]; in assay [7]; on Melanocortin receptor 3; in [8]) was above 30 µM each time.
Regarding `COc1c(O[C@@H]2O[C@H](CO)[C@@H](O)[C@H](O)[C@H]2O)cc2c(c1OC)-c1ccc(SC)c(=O)cc1[C@@H](NC(C)=O)CC2` [THIOCOLCHICOSIDE], the concentration at half-maximal activity (AC50) (in [1]; in assay [2]; in assay [3]; in assay [4]; in assay [5]; on Motilin receptor) was above 30 µM throughout. Besides, the AC50 (in [6]; in assay [7]; at Melanocortin receptor 3; in assay [8]) was above 30 µM each time.
For the molecule `CN1c2ccccc2C(NCCCCCCC(=O)O)c2ccc(Cl)cc2S1(=O)=O` (stereo not given) [TIANEPTINE], the AC50 (in [1]; in assay [2]; in [3]; in assay [4]; in assay [5]; on Motilin receptor) was above 30 µM in each case. For the same molecule, the AC50 (in assay [6]; in assay [7]; at Melanocortin receptor 3; in [8]) was above 30 µM throughout.

The term AC50 denotes the concentration at which the activity in the assay is half-maximal. Low readings indicate activity at low concentration, high ones activity only at high concentration.
